Laboratory results from patent publication US6702987B1, “Bioactive porous partition members” (Dade Behring Inc., priority 1994, dated 2004).

How the values were obtained:
[1] = cited from earlier work
[2] = Storage stability of agent incorporated in porous partition member and dried; format: physicochemical
Protocol: ADP is unstable in aqueous solution having a useful life of only about 4 hours.
Epinephrine is sensitive to aspirin induced defects in platelets.
The concentration of ADP solution used for incorporation into the membrane was 50 mg/ml, and that of the epinephrine solution was 10 mg/ml.
A strip of membrane was spot-coated with 1 μL of ADP or epinephrine solution. Therefore, each membrane placed in the Test Cartridge contained 50 μg of ADP or 10 μg of epinephrine. The membrane was then spot-coated with 1 μL of fibrillar Type I collagen suspension from horse tendon available from Nycomed AG.
Spot-coating involved putting spots of liquid agent on a strip of membrane. After spot-coating, the membrane was placed in a forced air drying chamber for 25 minutes for drying of the ADP or epinephrine, and formation of a collagen film on the coated areas. Once dried, an aperture was punched in the center of the spot and a membrane disk was cut from the membrane strip.

stable when incorporated in a porous partition member ([2]; incorporated in porous partition member, dried, stored at about 4° C. under hermetically sealed conditions)	stability when incorporated in a porous partition member and dried ([2]; incorporated in porous partition member and dried)	Structure (SMILES)	useful life in aqueous solution ([1]; aqueous solution)	stability in solution ([1]; in solution)
about one and one-half		Nc1ncnc2c1ncn2[C@@H]1O[C@H](COP(=O)(O)OP(=O)(O)O)[C@@H](O)[C@H]1O [ADP, adenosine 5′-diphosphate]	about 4 hours	
	good stability	CNC[C@H](O)c1ccc(O)c(O)c1 [epinephrine]		unstable
